Experiments:
[1] = target: T1, E3 ubiquitin-protein ligase XIAP (Homo sapiens, UniProt P98170)
Hepatocyte [2] = assay: Drug metabolism in human hepatocytes assessed as demethylation of methoxy group of naphthalene; assay type: ADME, cell-based
Hepatocyte [3] = assay: Drug metabolism in human hepatocytes assessed as demethylation of N-methyl-L-alanine; assay type: ADME, cell-based
[4] = Metabolic stability in rat blood assessed as compound remaining at 1 uM after 4 hrs by LC-MS/MS analysis; assay type: ADME, tissue-based; conditions: read-out: Stability
Hepatocyte [5] = assay: Drug metabolism in rat hepatocytes assessed as demethylation of N-methyl-L-alanine; assay type: ADME, cell-based
Hepatocyte [6] = assay: Drug metabolism in rat hepatocytes assessed as demethylation of methoxy group of naphthalene; assay type: ADME, cell-based
Cytochrome P450 3A4 [7] = target: T2, Cytochrome P450 3A4 (Homo sapiens, UniProt P08684); assay: Time dependent inhibition of CYP3A4 (unknown origin); assay type: ADME
[8] = target: T3, Baculoviral IAP repeat-containing protein 2 (Homo sapiens, UniProt Q13490); assay: Inhibition of His-thrombin-TEV-tagged cIAP1 BIR3 domain (260 to 352) (unknown origin) after 1 hr by TR-FRET assay
[9] = AUC in mouse at 10 mg/kg, po; assay type: ADME, organism-based; design: dose 10 mg/kg, route oral; conditions: plasma
[10] = Oral bioavailability in mouse at 10 mg/kg; assay type: ADME, organism-based; conditions: in vivo
[11] = target: T3, Baculoviral IAP repeat-containing protein 2; assay: Inhibition of His-thrombin-TEV-tagged cIAP1 BIR2 domain (174 to 256) (unknown origin) after 1 hr by TR-FRET assay
Cytochrome P450 3A4 [12] = target: T2, Cytochrome P450 3A4; assay: Inhibition of CYP3A4 (unknown origin); assay type: ADME
[13] = Half life in mouse at 1 mg/kg, iv; assay type: ADME, organism-based; design: dose 1 mg/kg, route intravenous; conditions: in vivo
[14] = Half life in mouse at 10 mg/kg, po; assay type: ADME, organism-based; design: dose 10 mg/kg, route oral; conditions: in vivo
[15] = Volume of distribution at steady state in mouse at 1 mg/kg, iv; assay type: ADME, organism-based; design: dose 1 mg/kg, route intravenous; conditions: in vivo, read-out: Vdss
[16] = AUC in mouse at 1 mg/kg, iv; assay type: ADME, organism-based; design: dose 1 mg/kg, route intravenous; conditions: plasma
Cytochrome P450 3A4 [17] = target: T2, Cytochrome P450 3A4; assay: Induction of CYP3A4 (unknown origin); assay type: ADME
[18] = Clearance in mouse at 1 mg/kg, iv; assay type: ADME, organism-based; design: dose 1 mg/kg, route intravenous; conditions: in vivo
[19] = Cmax in mouse at 1 mg/kg, iv; assay type: ADME, organism-based; design: dose 1 mg/kg, route intravenous; conditions: in vivo
[20] = Cmax in mouse at 10 mg/kg, po; assay type: ADME, organism-based; design: dose 10 mg/kg, route oral; conditions: in vivo
[21] = Clearance in rat at 2 mg/kg, iv; assay type: ADME, organism-based; design: dose 2 mg/kg, route intravenous; conditions: in vivo
[22] = In vivo metabolic stability in rat urine assessed as hydrolysis of the alanine amide at 4 mg/kg, iv; assay type: ADME, organism-based; design: dose 4 mg/kg, route intravenous
Plasma = assay: In vivo metabolic stability in rat plasma assessed as hydrolysis of the alanine amide at 4 mg/kg, iv; assay type: ADME, organism-based; design: dose 4 mg/kg, route intravenous
[23] = target: T1, E3 ubiquitin-protein ligase XIAP; remark: listed apart in the source

T2 sequence (P08684 whole entry, the tested form may be a part): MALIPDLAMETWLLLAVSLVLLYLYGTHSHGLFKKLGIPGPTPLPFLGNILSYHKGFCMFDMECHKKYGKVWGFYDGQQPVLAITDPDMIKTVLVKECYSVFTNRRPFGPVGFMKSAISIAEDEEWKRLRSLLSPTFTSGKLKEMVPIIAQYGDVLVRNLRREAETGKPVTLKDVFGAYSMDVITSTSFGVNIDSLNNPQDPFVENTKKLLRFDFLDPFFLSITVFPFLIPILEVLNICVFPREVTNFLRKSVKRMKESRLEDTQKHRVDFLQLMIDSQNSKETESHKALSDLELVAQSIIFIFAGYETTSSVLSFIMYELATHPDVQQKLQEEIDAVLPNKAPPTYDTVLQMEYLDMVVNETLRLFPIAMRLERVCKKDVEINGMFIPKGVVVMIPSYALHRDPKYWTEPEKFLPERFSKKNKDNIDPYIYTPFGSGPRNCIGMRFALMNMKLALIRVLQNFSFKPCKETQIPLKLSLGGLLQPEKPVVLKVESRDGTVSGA
T1 sequence (P98170 whole entry): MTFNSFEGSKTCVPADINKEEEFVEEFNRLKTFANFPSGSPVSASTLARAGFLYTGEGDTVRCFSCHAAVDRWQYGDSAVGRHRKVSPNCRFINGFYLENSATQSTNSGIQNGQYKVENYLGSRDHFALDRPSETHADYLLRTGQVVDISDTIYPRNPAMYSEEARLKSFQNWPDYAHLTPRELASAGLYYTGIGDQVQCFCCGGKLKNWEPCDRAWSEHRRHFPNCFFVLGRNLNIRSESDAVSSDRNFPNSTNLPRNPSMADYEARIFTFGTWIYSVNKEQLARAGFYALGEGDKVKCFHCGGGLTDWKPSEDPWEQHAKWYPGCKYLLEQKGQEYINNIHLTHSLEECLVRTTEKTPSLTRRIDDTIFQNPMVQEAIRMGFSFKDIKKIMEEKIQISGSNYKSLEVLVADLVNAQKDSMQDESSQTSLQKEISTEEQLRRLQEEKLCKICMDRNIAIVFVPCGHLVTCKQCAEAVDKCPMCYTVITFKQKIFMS
T3 sequence (Q13490 whole entry, the tested form may be a part): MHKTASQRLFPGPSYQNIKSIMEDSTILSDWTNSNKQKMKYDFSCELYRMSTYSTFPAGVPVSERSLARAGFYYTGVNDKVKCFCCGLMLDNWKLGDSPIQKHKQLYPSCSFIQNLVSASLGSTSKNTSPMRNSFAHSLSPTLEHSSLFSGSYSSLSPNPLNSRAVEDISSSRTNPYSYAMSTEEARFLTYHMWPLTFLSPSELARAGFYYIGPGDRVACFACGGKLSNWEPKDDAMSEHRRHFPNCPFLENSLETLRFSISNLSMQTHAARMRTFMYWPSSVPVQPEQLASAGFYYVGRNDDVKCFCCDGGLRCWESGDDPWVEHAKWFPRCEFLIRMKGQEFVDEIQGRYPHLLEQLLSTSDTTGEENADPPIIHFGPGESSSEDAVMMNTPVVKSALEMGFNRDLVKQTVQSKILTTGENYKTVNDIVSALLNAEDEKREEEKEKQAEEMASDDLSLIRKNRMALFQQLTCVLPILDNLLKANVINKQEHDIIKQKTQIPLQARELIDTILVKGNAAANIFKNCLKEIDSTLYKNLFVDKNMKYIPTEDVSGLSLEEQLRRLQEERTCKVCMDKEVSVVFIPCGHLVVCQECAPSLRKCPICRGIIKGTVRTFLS

COc1ccc2cc(Br)ccc2c1CN1C(=O)[C@@H](NC(=O)[C@@H](N)[C@H](C)O)CCc2ccccc21
IC50 [1]: > 54 µM

CN[C@@H](C)C(=O)N[C@H]1CCc2ccccc2N(Cc2ccc3ccccc3c2)C1=O
IC50 [1]: > 54 µM

CN[C@@H](C)C(=O)N[C@H]1CCc2ccccc2N(Cc2ccc(C)c3ccccc23)C1=O
IC50 [1]: > 54 µM

CN[C@@H](C)C(=O)N[C@@H]1C(=O)N(Cc2c(OC)ccc3cc(Br)ccc23)c2ccccc2OC12CCOCC2.Cl
Drug metabolism (Hepatocyte [2]): Active
Drug metabolism (Hepatocyte [3]): Active
remaining at 4 h, 1 µM [4]: 88%
Drug metabolism (Hepatocyte [5]): Active
Drug metabolism (Hepatocyte [6]): Active

CCN[C@@H](C)C(=O)N[C@H]1CCc2ccccc2N(Cc2c(OC)ccc3cc(Br)ccc23)C1=O
IC50 [1]: > 54 µM

CN[C@H](C)C(=O)N[C@H]1CCc2ccccc2N(Cc2c(OC)ccc3cc(Br)ccc23)C1=O
IC50 [1]: > 54 µM

CN[C@@H](C)C(=O)N[C@@H]1C(=O)N(Cc2nn(-c3ccccc3C#N)c3ccccc23)c2ccccc2OC12CCOCC2
IC50 [1]: > 54.8 µM

CN[C@@H](C)C(=O)N[C@H]1COc2ccccc2N(Cc2c(OC)ccc3cc(Br)ccc23)C1=O
remaining at 4 h, 1 µM [4]: 7%

CN[C@@H](C)C(=O)N[C@@H]1C(=O)N(Cc2c(C#N)n(-c3ccccc3C#N)c3ccccc23)c2ccccc2OC12CCOCC2.Cl
inhibition (INH) (Cytochrome P450 3A4 [7]): Active
IC50 [8]: > 55 µM
AUC [9]: 2860 ng·h/mL
bioavailability [10]: 53%
IC50 [11]: 271 nM
inhibition (INH) (Cytochrome P450 3A4 [12]): Active
half-life [13]: 414 min
half-life [14]: 300 min
Vd [15]: 8.6 L/kg
AUC [16]: 543 ng·h/mL
Activity (Cytochrome P450 3A4 [17]): Active
clearance [18]: 33 mL/min/kg
Cmax [19]: 495 ng/mL
Cmax [20]: 647 ng/mL

CN[C@@H](C)C(=O)N[C@H]1CCc2ccccc2N(Cc2c(OC)ccc3cc(Br)ccc23)C1=O.Cl
clearance [21]: 116 mL/min/kg
Stability [22]: Unstable
Stability (Plasma): Unstable
remaining at 4 h, 1 µM [4]: 40%
IC50 [1]: > 54 µM

CN[C@@H](C)C(=O)N[C@H]1CCc2ccccc2N(Cc2ccccc2)C1=O
IC50 [1]: > 54 µM

CN[C@@H](C)C(=O)N[C@H]1CCc2ccccc2N(Cc2cccc3ccccc23)C1=O
IC50 [1]: > 54 µM

CN[C@@H](C)C(=O)N[C@H]1CCc2ccccc2N(CCc2ccccc2)C1=O
IC50 [1]: > 54 µM

CN[C@@H](C)C(=O)N[C@H]1CCc2ccccc2N(Cc2c(OC)ccc3ccccc23)C1=O
IC50 [1]: > 54 µM

CN[C@@H](C)C(=O)N[C@H]1CCc2ccccc2N(Cc2c(C)ccc3ccccc23)C1=O
IC50 [1]: > 54 µM

C[C@H](N)C(=O)N[C@@H]1C(=O)N(C)CCc2ccccc21
IC50 [23]: 14.4 µM
IC50 [1]: > 54.2 µM

From ChEMBL document CHEMBL2429856, “Benzazepinones and benzoxazepinones as antagonists of inhibitor of apoptosis proteins (IAPs) selective for the second baculovirus IAP repeat (BIR2) domain” (J Med Chem, 2013)
